Active and inactive are the calls of the source. The rule behind the calls is not given here.

Data set [1] can be described thus: Drug localization in cell membrane of human M21 cells overexpressing integrin alphaVbeta3 at 1 uM measured within 3 mins by CellMask green staining based fluorescence analysis. It is filed as ADME, cell membranes. To be noted: m21, 0.05 h.
A short description of data set [2]: Drug localization in cell membrane of human M21 cells overexpressing integrin alphaVbeta3 at 1 uM measured at 30 mins by CellMask green staining based fluorescence analysis. As to conditions: m21, 0.5 h. It is filed as ADME, cell membranes.
Data set [3] is described as follows: Drug uptake in human M21 cells overexpressing integrin alphaVbeta3 at 1 uM measured at 60 to 300 mins by Hoechst 33342 staining based fluorescence analysis. It is filed as ADME, cell-based. As to conditions: m21, 1 µM, time 60-300 min.
Data set [4] in a line: Drug uptake in human OV-MZ-6 cells overexpressing integrin […] at 1 uM measured after 300 mins by Hoechst 33342 staining based fluorescence analysis. It is filed as ADME, cell-based. To be noted: ov-mz-6, 5 h.
Data set [5] concerns the target T1, Integrin alpha-V/beta-3 (Homo sapiens, UniProt P05106+P06756). The data set is described as follows: Agonist activity at integrin alphaVbeta3 in human M21 cells assessed as increase in p-ERK1/2 expression at 1 uM incubated for 24 hrs by Western blot analysis. It is filed as cell-based. To be noted: filed as agonist.
In data set [6] the target is T2, Integrin alpha-5/beta-1 (Homo sapiens, UniProt P05556+P08648). Put plainly: Agonist activity at integrin alpha5beta1 in human OV-MZ-6 cells assessed as increase in p-FAK expression at 1 uM incubated for 24 hrs by Western blot analysis. It is filed as cell-based. (In general: In western blotting, separated proteins are transferred to a membrane and probed.)
The target in data set [7] is T2, Integrin alpha-5/beta-1. Put plainly: Agonist activity at integrin alpha5beta1 in human OV-MZ-6 cells assessed as increase in p-ERK1/2 expression at 1 uM incubated for 24 hrs by Western blot analysis. It is filed as cell-based.
Data set [8] deals with T1, Integrin alpha-V/beta-3. Put plainly: Agonist activity at integrin alphaVbeta3 in human M21 cells assessed as increase in FAK expression at 1 nM incubated for 5 to 60 mins by Western blot analysis. It is filed as cell-based. To be noted: time 5-60 min.
Data set [9] has as its target T3, Integrin alpha-V/beta-6 (Homo sapiens, UniProt P06756+P18564). The data set is described as follows: Agonist activity at integrin alphaVbeta6 in human HN cells assessed as fold increase in p-FAK expression at 1 nM measured within 30 mins by Western blot analysis (reference value: 1). It is filed as cell-based. To be noted: filed as agonist.
In data set [10] the target is T3, Integrin alpha-V/beta-6. The data set is described as follows: Agonist activity at integrin alphaVbeta6 in human HN cells assessed as fold increase in p-FAK expression at 1 uM measured within 30 mins by Western blot analysis (reference value: 1). It is filed as cell-based. As to conditions: filed as agonist.
Data set [11] has as its target T2, Integrin alpha-5/beta-1. The data set is described as follows: Agonist activity at integrin alpha5beta1 in human OV-MZ-6 cells assessed as fold increase in FAK expression at 1 nM measured after 5 mins by Western blot analysis (reference value: 1). It is filed as cell-based. As to conditions: filed as agonist.
The target of data set [12] is T2, Integrin alpha-5/beta-1. The data set is described as follows: Agonist activity at integrin alpha5beta1 in human OV-MZ-6 cells assessed as increase in FAK expression at 1 nM measured after 30 to 60 mins by Western blot analysis. It is filed as cell-based. To be noted: time 30-60 min.
The target in data set [13] is T2, Integrin alpha-5/beta-1. Put plainly: Agonist activity at integrin alpha5beta1 in human OV-MZ-6 cells assessed as increase in FAK expression at 1 uM measured after 5 to 60 mins by Western blot analysis. It is filed as cell-based. To be noted: time 5-60 min.
In data set [14] the target is T1, Integrin alpha-V/beta-3. Put plainly: Agonist activity at integrin alphaVbeta3 in human M21 cells assessed as increase in p-FAK expression at 1 nM incubated for 5 to 60 mins by Western blot analysis. It is filed as cell-based. To be noted: time 5-60 min.
Data set [15] has as its system OV-MZ-6. Put plainly: Inhibition of cell migration in human OV-MZ-6 cells expressing integrin alpha5beta1 assessed as delay in wound gap closure at 1 uM measured within 24 hrs by wound scratch assay. It is filed as functional, cell-based.
Data set [16] has as its system OV-MZ-6. The data set is described as follows: Inhibition of cell migration in human OV-MZ-6 cells expressing integrin alpha5beta1 assessed as delay in wound gap closure at 1 uM measured within 72 hrs by wound scratch assay. It is filed as functional, cell-based.
Another data set deals with M21. The data set is described as follows: Inhibition of cell migration in human M21 cells expressing integrin alphaVbeta3 assessed as delay in wound gap closure at 1 to 1000 nM measured after 9 to 72 hrs by wound scratch assay. It is filed as functional, cell-based. To be noted: dose 1-1000 nM, time 9-72 hrs.
The subject of data set [17] is OV-MZ-6. Put plainly: Inhibition of cell migration in human OV-MZ-6 cells expressing integrin alpha5beta1 assessed as delay in wound gap closure at 1 nM measured after 9 to 72 hrs by wound scratch assay. It is filed as functional, cell-based. To be noted: time 9-72 hrs.
Data set [18] concerns OV-MZ-6. Put plainly: Inhibition of cell adhesion in human OV-MZ-6 cells expressing integrin alpha5beta1 at 1 uM measured after 48 hrs by microscopic imaging analysis. It is filed as functional, cell-based.
The test system of data set [19] is OV-MZ-6. Put plainly: Inhibition of cell adhesion in human OV-MZ-6 cells expressing integrin alpha5beta1 at 1 nM measured after 48 hrs by microscopic imaging analysis. It is filed as functional, cell-based.
Data set [20] can be described thus: Drug uptake in human HN cells overexpressing integrin alphaVbeta6 at 1 uM measured within 3 mins by Hoechst 33342 staining based fluorescence analysis. It is filed as ADME, cell-based. As to conditions: 0.05 h.
Data set [21] can be described thus: Drug uptake in human HN cells overexpressing integrin alphaVbeta6 at 1 uM measured at 60 to 300 mins by Hoechst 33342 staining based fluorescence analysis. It is filed as ADME, cell-based. As to conditions: time 60-300 min.

As for `COc1ccnc(NCCCOc2ccc(C[C@@H](CC(=O)O)NC(=O)c3ccc(OCCCNC(=O)CCCCCNC(=O)CCCCC[N+]4=C(/C=C/C=C/C=C5/N(C)c6ccc7ccccc7c6C5(C)C)C(C)(C)c5c4ccc4ccccc54)cc3)cc2)c1`, the Drug uptake result in data set [1], in data set [2], in [3] and in [4] was “Active” throughout.

For the molecule `C#CCCC(=O)NCCCOc1cc(C)c(C(=O)N[C@@H](CNC(=O)CNC(=O)c2cccc(NC(=N)N)c2)C(=O)O)c(C)c1`, at Integrin alpha-V/beta-3 [5], the result was Active. In addition, the result on Integrin alpha-5/beta-1 [6], on Integrin alpha-5/beta-1 [7], at Integrin alpha-V/beta-3 [8], at Integrin alpha-5/beta-1 [12] and at Integrin alpha-5/beta-1 [13] was inactive. Also, the fold change (FC) on Integrin alpha-V/beta-6 [9] is 4; on Integrin alpha-V/beta-6 [10] it was 3; at Integrin alpha-5/beta-1 [11], 1.6. The Activity entry at Integrin alpha-V/beta-3 [14] is “Not active; Slight Increase Compared To Control Observed”. The inhibition entry in the data set on OV-MZ-6 [15] and in the data set on OV-MZ-6 [18] was “Active” each time. Moreover, the inhibition entry in the data set on OV-MZ-6 [16], with M21, in the data set on OV-MZ-6 [17] and with OV-MZ-6 [19] was “inactive” throughout.

As to `CC(C)C[C@@H]1NC(=O)[C@H](CC(=O)O)NC(=O)CNC(=O)[C@H](CCCNC(=N)N)NC(=O)[C@H](Cc2ccccc2)NC(=O)[C@H](CCCCNC(=O)CCCCCNC(=O)CCCCC[N+]2=C(/C=C/C=C/C=C3/N(C)c4ccc5ccccc5c4C3(C)C)C(C)(C)c3c2ccc2ccccc32)N(C)C(=O)[C@H]2CCCN2C(=O)[C@H](Cc2ccccc2)NC(=O)[C@H](C)NC1=O`, the Drug uptake result is given as “Active” in [20], “Active” in [21] and “Not_active” in [4].

For the origin of these results see ChEMBL document CHEMBL6153109, “Switching Roles─Exploring Concentration-Dependent Agonistic versus Antagonistic Behavior of Integrin Ligands” (J Med Chem, 2025).
